# Source: article PMC2423185 (BMC Biochemistry, 2008)
# Biological target: T1, H. pylori arginase (RocF) (Helicobacter pylori, UniProt O25949)
# T1 construct: gene HP_1399
# T1 sequence (O25949 entry or part of it): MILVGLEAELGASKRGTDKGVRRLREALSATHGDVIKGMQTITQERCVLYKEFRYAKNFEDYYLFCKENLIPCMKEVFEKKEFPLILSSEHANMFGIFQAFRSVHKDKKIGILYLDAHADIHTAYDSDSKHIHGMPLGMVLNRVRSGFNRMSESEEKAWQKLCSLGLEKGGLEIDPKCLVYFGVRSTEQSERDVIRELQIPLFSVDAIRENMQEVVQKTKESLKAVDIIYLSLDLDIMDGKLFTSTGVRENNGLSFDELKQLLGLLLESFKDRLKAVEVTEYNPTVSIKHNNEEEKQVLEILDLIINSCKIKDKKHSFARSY
compound,measurement,value
N=C(N)NCCC[C@H](N)C(=O)O [L-arginine],"L-ornithine formation by acidified ninhydrin, 515 nm","With E. coli (pBS-rocF), optimal arginase activity was with cobalt"
